± gives the standard deviation of the averaged measurements.
Assays:
Settings in all cases: 72 h
[1] = tested on: HepG2; assay: relative viability EC50 (midpoint between 100% and the lowest measured viability); higher = less toxic
[2] = tested on: Calu-3; assay: as above
[3] = tested on: U2OS; assay: as above
[4] = tested on: Vero E6; assay: as above
[5] = tested on: Caco-2; assay: as above
[6] = tested on: HepG2; assay: drug sensitivity score (DSS) for viability; higher = more toxic; extreme values may be limits of the assay
[7] = tested on: Calu-3; assay: as above
[8] = tested on: U2OS; assay: as above
[9] = tested on: Vero E6; assay: as above
[10] = tested on: Caco-2; assay: as above
[11] = tested on: HepG2; assay: cell viability relative to DMSO; higher = less toxic
[12] = tested on: Calu-3; assay: as above
[13] = tested on: U2OS; assay: as above
[14] = tested on: Vero E6; assay: as above
[15] = tested on: Caco-2; assay: as above

| SMILES | relative viability EC50 [1] [µM] | relative viability EC50 [2] [µM] | relative viability EC50 [3] [µM] | relative viability EC50 [4] [µM] | relative viability EC50 [5] [µM] | drug sensitivity score [6] | drug sensitivity score [7] | drug sensitivity score [8] | drug sensitivity score [9] | drug sensitivity score [10] | cell viability ([11]; 1 nM) [%] | cell viability ([11]; 10 nM) [%] | cell viability ([11]; 100 nM) [%] | cell viability ([11]; 1000 nM) [%] | cell viability ([11]; 10000 nM) [%] | cell viability ([12]; 1 nM) [%] | cell viability ([12]; 10 nM) [%] | cell viability ([12]; 100 nM) [%] | cell viability ([12]; 1000 nM) [%] | cell viability ([12]; 10000 nM) [%] | cell viability ([13]; 1 nM) [%] | cell viability ([13]; 10 nM) [%] | cell viability ([13]; 100 nM) [%] | cell viability ([13]; 1000 nM) [%] | cell viability ([13]; 10000 nM) [%] | cell viability ([14]; 1 nM) [%] | cell viability ([14]; 10 nM) [%] | cell viability ([14]; 100 nM) [%] | cell viability ([14]; 1000 nM) [%] | cell viability ([14]; 10000 nM) [%] | cell viability ([15]; 1 nM) [%] | cell viability ([15]; 10 nM) [%] | cell viability ([15]; 100 nM) [%] | cell viability ([15]; 1000 nM) [%] | cell viability ([15]; 10000 nM) [%] |
| --- | --- | --- | --- | --- | --- | --- | --- | --- | --- | --- | --- | --- | --- | --- | --- | --- | --- | --- | --- | --- | --- | --- | --- | --- | --- | --- | --- | --- | --- | --- | --- | --- | --- | --- | --- |
| Nc1nonc1/C(=N/O)Nc1ccc(F)c(Cl)c1 [IDO5L] | > 10 | > 10 | > 10 | > 10 | > 10 | 0 | 0 | 0 | 0 | 0 | 92.8 | 97.8 | 104 | 89.9 | 91.2 | 92.5 | 96 | 108 | 89.6 | 114 | 93.1 | 95.7 | 102 | 95.5 | 102 | 106 | 102 | 96.7 | 98.8 | 114 | 101 | 95.2 | 115 | 87.7 | 109 |
| O=c1ccn([C@@H]2O[C@H](COP(=O)(O)OP(=O)(O)OP(=O)(O)O)[C@@H](O)[C@H]2O)c(=O)[nH]1 [INS316] | > 10 | > 10 | > 10 | > 10 | > 10 | 0 | 0 | 0 | 0 | 0 | 100 ± 1.2 | 107 ± 2 | 109 ± 10 | 105 ± 3 | 103 ± 5.7 | 94.5 ± 3.1 | 95.8 ± 7.1 | 92.5 ± 1.9 | 100.8 ± 0.21 | 101 ± 7.7 | 99.4 ± 5.7 | 95.9 ± 3.8 | 103 ± 7.8 | 96.3 ± 6.7 | 105 ± 1.8 | 98.6 ± 2.5 | 93.3 ± 11 | 98.2 ± 2.6 | 98.5 ± 4.2 | 99.1 ± 3.1 | 102 ± 6 | 107 ± 18 | 109 ± 1.8 | 113 ± 26 | 93.5 ± 13 |
| O=C(Oc1ccc([N+](=O)[O-])cc1)N1CCC(C(O)(c2ccc3c(c2)OCO3)c2ccc3c(c2)OCO3)CC1 [JZL-184] | > 10 | > 10 | > 10 | > 10 | > 10 | 0 | 0 | 0 | 0 | 0 | 109 | 114 | 90.5 | 116 | 97.9 | 105 | 115 | 100 | 91.2 | 117 | 94.9 | 100 | 98 | 96.2 | 97.9 | 106 | 97.2 | 91.9 | 96.4 | 91 | 104 | 98.5 | 100 | 91.5 | 104 |

From the supplement of paper PMC13380429
